Results: PMC8401933 (Molecules, 2021)
Entries after “also recorded” stand apart in the source; their conditions may differ.

Key:
[1] = target: T1, JNK3 (Homo sapiens, UniProt P53779); assay: KINOMEscan binding; details: read-out: Percent Control
T1 construct: purchased Eurofins DiscoverX KINOMEscan

[2] = target: T2, ROS1 (Homo sapiens, UniProt P08922); assay: KINOMEscan binding; details: read-out: Percent Control
T2 construct: purchased Eurofins DiscoverX KINOMEscan

[3] = target: T3, DYRK1B (Homo sapiens, UniProt Q9Y463); assay: KINOMEscan binding; details: read-out: Percent Control
T3 construct: purchased Eurofins DiscoverX KINOMEscan
T3 sequence (Q9Y463 whole entry): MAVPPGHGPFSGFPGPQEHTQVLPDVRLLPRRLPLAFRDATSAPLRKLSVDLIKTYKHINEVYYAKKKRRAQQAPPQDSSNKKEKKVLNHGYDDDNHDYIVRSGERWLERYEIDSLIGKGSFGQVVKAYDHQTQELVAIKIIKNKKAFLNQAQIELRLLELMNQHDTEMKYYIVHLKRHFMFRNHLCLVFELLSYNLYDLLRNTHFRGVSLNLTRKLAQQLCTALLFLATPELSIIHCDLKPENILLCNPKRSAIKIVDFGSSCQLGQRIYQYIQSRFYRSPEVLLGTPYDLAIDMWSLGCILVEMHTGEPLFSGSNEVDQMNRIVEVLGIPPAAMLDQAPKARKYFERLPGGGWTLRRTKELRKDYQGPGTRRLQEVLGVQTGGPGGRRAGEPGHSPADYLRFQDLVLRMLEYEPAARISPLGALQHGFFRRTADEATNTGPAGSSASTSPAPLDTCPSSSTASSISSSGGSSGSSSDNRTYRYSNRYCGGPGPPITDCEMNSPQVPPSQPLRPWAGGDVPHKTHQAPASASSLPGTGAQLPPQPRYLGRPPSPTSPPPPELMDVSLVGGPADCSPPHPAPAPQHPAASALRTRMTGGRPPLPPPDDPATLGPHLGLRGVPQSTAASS

[4] = target: T4, ABL1(F317I)-nonphosphorylated (Homo sapiens, UniProt P00519, F317I); assay: KINOMEscan binding; details: read-out: Percent Control
T4 construct: purchased Eurofins DiscoverX KINOMEscan

[5] = target: T5, AXL (Homo sapiens, UniProt P30530); assay: KINOMEscan binding; details: read-out: Percent Control
T5 construct: purchased Eurofins DiscoverX KINOMEscan

[6] = target: T6, p38-beta (Homo sapiens, UniProt Q15759); assay: KINOMEscan binding; details: read-out: Percent Control
T6 construct: purchased Eurofins DiscoverX KINOMEscan
T6 sequence (Q15759 whole entry): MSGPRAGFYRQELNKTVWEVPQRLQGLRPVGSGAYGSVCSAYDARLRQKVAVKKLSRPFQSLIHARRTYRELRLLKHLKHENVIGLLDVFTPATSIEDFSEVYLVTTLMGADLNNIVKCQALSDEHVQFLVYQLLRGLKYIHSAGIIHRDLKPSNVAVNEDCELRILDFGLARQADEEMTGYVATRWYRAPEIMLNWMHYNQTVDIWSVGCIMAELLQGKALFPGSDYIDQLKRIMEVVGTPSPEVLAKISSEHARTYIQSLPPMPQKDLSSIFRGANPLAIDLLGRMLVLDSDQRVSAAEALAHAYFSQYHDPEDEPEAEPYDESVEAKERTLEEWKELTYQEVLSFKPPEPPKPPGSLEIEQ

[7] = target: T7, PRKR (Homo sapiens, UniProt P19525); assay: KINOMEscan binding; details: read-out: Percent Control
T7 construct: purchased Eurofins DiscoverX KINOMEscan

[8] = target: T8, NEK11 (Homo sapiens, UniProt Q8NG66); assay: KINOMEscan binding; details: read-out: Percent Control
T8 construct: purchased Eurofins DiscoverX KINOMEscan

[9] = test system: 3T3-L1 cells; assay: Adipocyte differentiation, Oil Red O staining; format: cell-based; details: for quantity of lipid droplets (ORO staining): CX-4945 5 μM, KD025 3 μM
Protocol: The preadipocyte 3T3-L1 cell line was kindly provided by Dr. Hyun-Sung Park (University of Seoul) and cultured in Dulbecco’s modified Eagle’s medium (DMEM, Sigma-Aldrich) supplied with 10% heat-inactivated newborn calf serum (Invitrogen, CA, USA), 100 units/mL penicillin, and 100 µg/mL streptomycin (Cellgro, VA, USA). The cells were maintained in an incubator at 37 °C and 5% CO2. To initiate differentiation, the cells were incubated for additional days after 100% confluence and then further incubated in a medium containing fetal bovine serum (FBS) and a differentiation cocktail (DMI, 1 μM dexamethasone, 0.5 mM 3-isobutyl-1-methylxanthine, and 5 μg/mL insulin) as previously described. In brief, at day 3, the culture medium was replaced with DMEM/10%FBS containing 5 µg/mL insulin. Then, growth medium was changed every 2 days.
Lipid droplets of cells were stained using ORO (Sigma-Aldrich, MA, USA). In brief, the cells were washed with phosphate buffered saline and incubated with 10% formalin for 5 min. The cells were then fixed with the same volume of fresh formalin for at least 1 h. Subsequently, the cells were washed with 60% isopropanol, air dried completely, and then stained with ORO working solution (1% ORO/isopropanol: distilled water = 3:2). The stained cells were washed with water four times. Cell images were taken by a microscope (Nikon Eclipse TS100-F, Japan). Then, 100% isopropanol was added and incubated for 10 min to quantify the intensity of ORO. The quantity of extracted dye was obtained by obtaining absorbance at 540 nm in the Synergy H1 hybrid reader (BioTek, VT, USA).

[10] = target: T9, ACVR2B (Homo sapiens, UniProt Q13705); assay: KINOMEscan binding; details: read-out: Percent Control
T9 construct: purchased Eurofins DiscoverX KINOMEscan

[11] = target: T10, JAK1(JH1domain-catalytic) (Homo sapiens, UniProt P23458); assay: KINOMEscan binding; details: read-out: Percent Control
T10 construct: JAK1(JH1domain-catalytic); purchased Eurofins DiscoverX KINOMEscan
T10 sequence (P23458 854-1154 limits assumed): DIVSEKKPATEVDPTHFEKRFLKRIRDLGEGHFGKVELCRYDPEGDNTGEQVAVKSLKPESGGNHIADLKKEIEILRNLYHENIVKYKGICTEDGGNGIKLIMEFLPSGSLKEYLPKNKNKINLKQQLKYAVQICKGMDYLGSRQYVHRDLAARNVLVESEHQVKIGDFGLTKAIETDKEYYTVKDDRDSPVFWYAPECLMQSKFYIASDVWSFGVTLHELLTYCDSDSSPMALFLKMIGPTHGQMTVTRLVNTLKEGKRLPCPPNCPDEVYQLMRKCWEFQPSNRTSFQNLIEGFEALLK

[12] = target: T11, KIT(V559D) (Homo sapiens, UniProt P10721, V559D); assay: KINOMEscan binding; details: read-out: Percent Control
T11 construct: purchased Eurofins DiscoverX KINOMEscan

[13] = target: T12, ACVR1B (Homo sapiens, UniProt P36896); assay: KINOMEscan binding; details: read-out: Percent Control
T12 construct: purchased Eurofins DiscoverX KINOMEscan
T12 sequence (P36896 24-505): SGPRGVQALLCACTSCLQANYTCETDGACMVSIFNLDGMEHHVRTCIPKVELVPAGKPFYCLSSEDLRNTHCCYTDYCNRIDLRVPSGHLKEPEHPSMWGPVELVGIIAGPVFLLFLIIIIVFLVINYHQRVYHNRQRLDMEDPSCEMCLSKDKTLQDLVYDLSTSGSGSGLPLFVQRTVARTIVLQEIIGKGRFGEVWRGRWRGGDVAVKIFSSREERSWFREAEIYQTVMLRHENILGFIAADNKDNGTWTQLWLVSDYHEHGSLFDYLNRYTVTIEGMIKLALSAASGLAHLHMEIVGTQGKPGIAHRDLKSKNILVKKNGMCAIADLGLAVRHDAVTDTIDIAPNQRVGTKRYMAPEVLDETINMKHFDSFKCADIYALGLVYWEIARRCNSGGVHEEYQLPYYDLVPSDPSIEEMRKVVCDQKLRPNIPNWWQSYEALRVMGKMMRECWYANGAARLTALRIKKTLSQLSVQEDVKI

[14] = target: T13, SGK3 (Homo sapiens, UniProt Q96BR1); assay: KINOMEscan binding; details: read-out: Percent Control
T13 construct: purchased Eurofins DiscoverX KINOMEscan

[15] = target: T14, ACVR1 (Homo sapiens, UniProt Q04771); assay: KINOMEscan binding; details: read-out: Percent Control
T14 construct: purchased Eurofins DiscoverX KINOMEscan
T14 sequence (Q04771 21-509): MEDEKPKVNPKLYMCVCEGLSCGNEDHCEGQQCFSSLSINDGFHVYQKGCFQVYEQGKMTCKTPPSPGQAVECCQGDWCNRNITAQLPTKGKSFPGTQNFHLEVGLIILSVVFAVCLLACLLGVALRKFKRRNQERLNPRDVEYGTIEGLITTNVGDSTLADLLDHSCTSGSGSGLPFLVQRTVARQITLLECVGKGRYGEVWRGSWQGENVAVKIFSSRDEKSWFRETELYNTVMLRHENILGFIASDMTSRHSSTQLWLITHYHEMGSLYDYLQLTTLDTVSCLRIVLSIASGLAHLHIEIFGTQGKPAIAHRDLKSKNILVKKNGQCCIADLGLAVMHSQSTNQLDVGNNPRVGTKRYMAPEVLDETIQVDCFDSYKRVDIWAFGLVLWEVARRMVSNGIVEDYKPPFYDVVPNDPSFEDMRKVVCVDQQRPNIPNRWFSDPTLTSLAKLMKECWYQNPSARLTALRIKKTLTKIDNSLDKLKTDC

[16] = target: T15, PLK1 (Homo sapiens, UniProt P53350); assay: KINOMEscan binding; details: read-out: Percent Control
T15 construct: purchased Eurofins DiscoverX KINOMEscan

[17] = target: T16, CAMK1B (Homo sapiens, UniProt Q6P2M8); assay: KINOMEscan binding; details: read-out: Percent Control
T16 construct: purchased Eurofins DiscoverX KINOMEscan

[18] = target: T17, BMX (Homo sapiens, UniProt P51813); assay: KINOMEscan binding; details: read-out: Percent Control
T17 construct: purchased Eurofins DiscoverX KINOMEscan

[19] = target: T18, VPS34 (Homo sapiens, UniProt Q8NEB9); assay: KINOMEscan binding; details: read-out: Percent Control
T18 construct: purchased Eurofins DiscoverX KINOMEscan

[20] = target: T19, PIP5K2B (Homo sapiens, UniProt P78356); assay: KINOMEscan binding; details: read-out: Percent Control
T19 construct: purchased Eurofins DiscoverX KINOMEscan
T19 sequence (P78356 whole entry): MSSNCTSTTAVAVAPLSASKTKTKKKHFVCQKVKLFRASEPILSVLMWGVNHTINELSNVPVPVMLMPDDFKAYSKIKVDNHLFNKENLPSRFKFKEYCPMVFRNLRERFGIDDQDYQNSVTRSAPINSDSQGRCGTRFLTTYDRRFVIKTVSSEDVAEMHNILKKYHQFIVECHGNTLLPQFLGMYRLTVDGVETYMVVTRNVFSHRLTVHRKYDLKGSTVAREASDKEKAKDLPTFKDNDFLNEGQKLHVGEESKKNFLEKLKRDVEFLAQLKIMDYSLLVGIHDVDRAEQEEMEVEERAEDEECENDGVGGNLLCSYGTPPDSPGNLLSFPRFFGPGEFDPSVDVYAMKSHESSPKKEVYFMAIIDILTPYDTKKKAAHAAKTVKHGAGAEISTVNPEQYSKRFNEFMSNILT

[21] = target: T20, ABL1(Y253F)-phosphorylated (Homo sapiens, UniProt P00519, Y253F); assay: KINOMEscan binding; details: read-out: Percent Control
T20 construct: purchased Eurofins DiscoverX KINOMEscan

[22] = target: T21, YSK4 (Homo sapiens, UniProt Q56UN5); assay: KINOMEscan binding; details: read-out: Percent Control
T21 construct: purchased Eurofins DiscoverX KINOMEscan

[23] = target: T22, ARK5 (Homo sapiens, UniProt O60285); assay: KINOMEscan binding; details: read-out: Percent Control
T22 construct: purchased Eurofins DiscoverX KINOMEscan

[24] = target: T23, EPHB4 (Homo sapiens, UniProt P54760); assay: KINOMEscan binding; details: read-out: Percent Control
T23 construct: purchased Eurofins DiscoverX KINOMEscan

[25] = target: T24, IKK-alpha (Homo sapiens, UniProt O15111); assay: KINOMEscan binding; details: read-out: Percent Control
T24 construct: purchased Eurofins DiscoverX KINOMEscan

[26] = target: T25, FLT4 (Homo sapiens, UniProt P35916); assay: KINOMEscan binding; details: read-out: Percent Control
T25 construct: purchased Eurofins DiscoverX KINOMEscan

[27] = target: T26, CSF1R-autoinhibited (Homo sapiens, UniProt P07333); assay: KINOMEscan binding; details: read-out: Percent Control
T26 construct: purchased Eurofins DiscoverX KINOMEscan

[28] = target: T27, RET(V804M) (Homo sapiens, UniProt P07949, V804M); assay: KINOMEscan binding; details: read-out: Percent Control
T27 construct: purchased Eurofins DiscoverX KINOMEscan

[29] = target: T28, GSK3B (Homo sapiens, UniProt P49841); assay: KINOMEscan binding; details: read-out: Percent Control
T28 construct: purchased Eurofins DiscoverX KINOMEscan

[30] = target: T29, HIPK3 (Homo sapiens, UniProt Q9H422); assay: KINOMEscan binding; details: read-out: Percent Control
T29 construct: purchased Eurofins DiscoverX KINOMEscan

[31] = target: T30, KIT (Homo sapiens, UniProt P10721); assay: KINOMEscan binding; details: read-out: Percent Control
T30 construct: purchased Eurofins DiscoverX KINOMEscan

[32] = target: T31, MAP4K4 (Homo sapiens, UniProt O95819); assay: KINOMEscan binding; details: read-out: Percent Control
T31 construct: purchased Eurofins DiscoverX KINOMEscan

[33] = target: T32, MAPKAPK5 (Homo sapiens, UniProt Q8IW41); assay: KINOMEscan binding; details: read-out: Percent Control
T32 construct: purchased Eurofins DiscoverX KINOMEscan

[34] = target: T33, MKNK2 (Homo sapiens, UniProt Q9HBH9); assay: KINOMEscan binding; details: read-out: Percent Control
T33 construct: purchased Eurofins DiscoverX KINOMEscan

T2 sequence (P08922 28-2347): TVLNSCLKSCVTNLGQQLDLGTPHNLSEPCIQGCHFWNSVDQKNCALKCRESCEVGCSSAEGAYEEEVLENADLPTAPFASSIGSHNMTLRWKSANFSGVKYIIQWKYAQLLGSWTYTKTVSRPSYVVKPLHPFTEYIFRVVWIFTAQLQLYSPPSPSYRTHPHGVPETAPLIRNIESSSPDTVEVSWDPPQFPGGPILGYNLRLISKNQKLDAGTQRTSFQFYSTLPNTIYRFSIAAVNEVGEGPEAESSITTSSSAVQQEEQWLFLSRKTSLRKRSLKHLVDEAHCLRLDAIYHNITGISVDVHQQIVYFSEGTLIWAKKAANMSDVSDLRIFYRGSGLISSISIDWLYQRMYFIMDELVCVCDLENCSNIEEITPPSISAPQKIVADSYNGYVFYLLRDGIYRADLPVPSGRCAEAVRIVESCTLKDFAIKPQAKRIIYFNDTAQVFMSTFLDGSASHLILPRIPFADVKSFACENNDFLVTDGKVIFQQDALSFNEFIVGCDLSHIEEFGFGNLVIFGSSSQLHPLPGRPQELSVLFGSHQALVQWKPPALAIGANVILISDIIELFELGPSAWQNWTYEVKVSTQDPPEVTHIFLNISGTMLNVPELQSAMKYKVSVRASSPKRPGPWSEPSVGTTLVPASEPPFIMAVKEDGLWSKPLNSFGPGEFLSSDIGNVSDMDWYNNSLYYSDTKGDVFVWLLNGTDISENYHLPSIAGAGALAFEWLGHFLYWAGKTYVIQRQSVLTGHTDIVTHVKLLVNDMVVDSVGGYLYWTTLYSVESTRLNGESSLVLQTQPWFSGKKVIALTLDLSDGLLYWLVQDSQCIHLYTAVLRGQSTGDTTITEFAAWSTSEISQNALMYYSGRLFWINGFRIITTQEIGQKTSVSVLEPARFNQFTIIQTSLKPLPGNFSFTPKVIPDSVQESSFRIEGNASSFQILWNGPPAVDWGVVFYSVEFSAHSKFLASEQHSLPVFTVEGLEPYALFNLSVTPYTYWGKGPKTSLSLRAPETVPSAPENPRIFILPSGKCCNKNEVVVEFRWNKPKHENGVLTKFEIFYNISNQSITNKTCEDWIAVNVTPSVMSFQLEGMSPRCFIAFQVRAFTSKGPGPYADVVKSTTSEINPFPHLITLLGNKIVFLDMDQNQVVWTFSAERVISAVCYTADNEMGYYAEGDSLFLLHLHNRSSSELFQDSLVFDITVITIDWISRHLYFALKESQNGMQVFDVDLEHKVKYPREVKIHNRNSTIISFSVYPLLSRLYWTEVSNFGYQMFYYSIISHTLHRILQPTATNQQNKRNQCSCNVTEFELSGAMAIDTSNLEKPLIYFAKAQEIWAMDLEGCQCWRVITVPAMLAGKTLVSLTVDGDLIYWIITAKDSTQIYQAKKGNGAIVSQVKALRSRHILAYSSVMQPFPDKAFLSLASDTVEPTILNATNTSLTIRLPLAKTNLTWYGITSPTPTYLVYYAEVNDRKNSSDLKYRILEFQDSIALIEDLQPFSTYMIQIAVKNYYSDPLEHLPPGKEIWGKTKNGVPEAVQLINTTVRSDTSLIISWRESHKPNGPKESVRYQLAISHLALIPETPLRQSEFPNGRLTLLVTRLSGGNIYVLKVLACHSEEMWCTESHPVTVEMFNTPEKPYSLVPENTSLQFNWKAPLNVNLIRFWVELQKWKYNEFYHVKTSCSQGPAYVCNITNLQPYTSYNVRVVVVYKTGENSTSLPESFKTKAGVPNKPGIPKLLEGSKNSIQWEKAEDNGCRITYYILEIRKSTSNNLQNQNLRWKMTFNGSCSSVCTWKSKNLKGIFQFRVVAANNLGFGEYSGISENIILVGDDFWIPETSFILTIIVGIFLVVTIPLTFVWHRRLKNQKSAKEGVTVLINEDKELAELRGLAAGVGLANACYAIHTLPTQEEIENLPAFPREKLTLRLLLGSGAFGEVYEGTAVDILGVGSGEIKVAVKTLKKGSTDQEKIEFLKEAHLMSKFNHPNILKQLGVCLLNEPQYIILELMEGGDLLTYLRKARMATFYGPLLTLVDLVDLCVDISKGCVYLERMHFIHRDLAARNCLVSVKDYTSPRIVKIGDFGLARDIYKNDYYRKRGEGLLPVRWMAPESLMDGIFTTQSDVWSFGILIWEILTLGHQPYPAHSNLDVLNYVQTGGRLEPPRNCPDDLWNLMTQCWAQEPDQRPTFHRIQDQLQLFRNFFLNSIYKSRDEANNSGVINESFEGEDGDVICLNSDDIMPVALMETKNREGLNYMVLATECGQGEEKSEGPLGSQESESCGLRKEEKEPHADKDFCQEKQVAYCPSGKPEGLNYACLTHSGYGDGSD

CC(C)NC(=O)COc1cccc(-c2nc(Nc3ccc4[nH]ncc4c3)c3ccccc3n2)c1 [KD025, 2-(3-(4-((1H-indazol-5-yl)amino)quinazolin-2-yl)phenoxy)-N-isopropylacetamide]
remaining binding at 10 µM [1]: 78% | remaining binding at 10 µM [2]: 79% | remaining binding at 10 µM [3]: 64% | remaining binding at 10 µM [4]: 98% | remaining binding at 10 µM [5]: 66% | remaining binding at 10 µM [6]: 93% | remaining binding at 10 µM [7]: 54% | remaining binding at 10 µM [8]: 99% | lipid accumulation / adipocyte differentiation (ORO staining) ([9]; 3T3-L1, treated during differentiation, stained at day 8): suppressed the generation of lipid droplets; also recorded: reduces fat accumulation | quantity of lipid droplets (ORO staining) ([9]; 3T3-L1, treated during the early (days 0–1) or late (days 5–8) stage): ineffective; also recorded: lesser effect | quantity of lipid droplets (ORO staining) ([9]; 3T3-L1, treated during the intermediate stage (days 1–3)): acted specifically in the middle stage; also recorded: significantly reduced | remaining binding at 10 µM [10]: 91% | remaining binding at 10 µM [11]: 99% | remaining binding at 10 µM [12]: 72% | remaining binding at 10 µM [13]: 91% | remaining binding at 10 µM [14]: 79% | remaining binding at 10 µM [15]: 32% | remaining binding at 10 µM [16]: 100% | remaining binding at 10 µM [17]: 97% | remaining binding at 10 µM [18]: 69% | remaining binding at 10 µM [19]: 27% | remaining binding at 10 µM [20]: 9.7% | remaining binding at 10 µM [21]: 49% | remaining binding at 10 µM [22]: 66% | remaining binding at 10 µM [23]: 100% | remaining binding at 10 µM [24]: 95% | remaining binding at 10 µM [25]: 100% | remaining binding at 10 µM [26]: 86% | remaining binding at 10 µM [27]: 91% | remaining binding at 10 µM [28]: 59% | remaining binding at 10 µM [29]: 100% | remaining binding at 10 µM [30]: 100% | remaining binding at 10 µM [31]: 79% | remaining binding at 10 µM [32]: 87% | remaining binding at 10 µM [33]: 89% | remaining binding at 10 µM [34]: 68%
